Structures can show the parent of a compound that is named as a salt.
Tested on: HCT116
Experiment: efficacy (fitted maximal change in viability relative to DMSO control); higher = less cytotoxic (negative = loss of viability)
Settings: 48 h
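Further: Luminescence-based viability readout, five doses per compound, normalized against on-plate DMSO and empty-well controls, followed by dose-response curve fitting for every drug.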

| Structure (SMILES) | efficacy [%] |
| --- | --- |
| Cc1cc(O)c2c(c1)C(=O)c1cc(O)cc(O)c1C2=O [Emodin] | -31.9 |
| CCOC(=O)[C@H](CCc1ccccc1)N[C@@H](C)C(=O)N1CCC[C@H]1C(=O)O [Enalapril maleate] | -15.7 |
| CC/C(=C(/c1ccc(O)cc1)c1ccc(OCCNC)cc1)c1ccccc1 [Endoxifen] | -71.8 |
| CC1(C)[C@@H](O)CC[C@@]2(C)[C@H]1CC[C@]3(C)[C@@H]2C(=O)\C=C/4[C@@H]5C[C@](C)(CC[C@]5(C)CC[C@@]34C)C(O)=O [Enoxolone] | -35.4 |
| CNC(=O)c1ccc(N2C(=S)N(c3ccc(C#N)c(C(F)(F)F)c3)C(=O)C2(C)C)cc1F [Enzalutamide] | -37 |
| N[S+](=O)([O-])NCCNc1nonc1/C(=N/O)Nc1ccc(F)c(Br)c1 [Epacadostat] | -25.2 |
| CNC[C@H](O)c1ccc(O)c(O)c1 [Epinephrine] | -17.8 |
| COC(=O)[C@@H]1CC/2=C/C(=O)CC[C@]2(C)[C@@]34O[C@@H]3C[C@@]5(C)[C@@H](CC[C@@]56CCC(=O)O6)[C@H]14 [Eplerenone] | -6.15 |
| C/C(=C\c1csc(C)n1)[C@@H]1C[C@@H]2O[C@@H]2CCC[C@H](C)[C@H](O)[C@@H](C)C(=O)C(C)(C)[C@@H](O)CC(=O)O1 [Epothilone A] | -68.2 |
| O=C(O)CSCC(=O)NC1CCSC1=O (stereo unspecified) [Erdosteine] | 9.04 |
| CC[C@H]1OC(=O)[C@H](C)[C@@H](O[C@H]2C[C@@](C)(OC)[C@@H](O)[C@H](C)O2)[C@H](C)[C@@H](O[C@@H]2O[C@H](C)C[C@H](N(C)C)[C@H]2O)[C@](C)(O)C[C@@H](C)C(=O)[C@H](C)[C@@H](O)[C@]1(C)O [Erythromycin] | 23 |
| C[C@]12CC[C@@H]3c4ccc(O)cc4CC[C@H]3[C@@H]1[C@@H](O)[C@@H](O)[C@@H]2O [Estetrol] | -16.1 |
| C[C@]12CC[C@@H]3c4ccc(O)cc4CC[C@H]3[C@@H]1C[C@@H](O)[C@@H]2O [Estriol] | -52.3 |
| C[C@]12CCC3c4ccc(O)cc4CCC3C1CCC2=O (stereo partly specified) [Estrone] | -24.4 |
| C#C[C@]1(O)CC[C@H]2[C@@H]3CCc4cc(O)ccc4[C@H]3CC[C@@]21C [Ethinylestradiol] | -54.2 |
| CCC1(C)CC(=O)NC1=O (stereo unspecified) [Ethosuximide] | -10.2 |
| Cc1ccc(-c2ncc(Cl)cc2-c2ccc([S+](C)(=O)[O-])cc2)cn1 [Etoricoxib] | -16.9 |
| CO[C@H]1C[C@@H]2CC[C@@H](C)[C@@](O)(O2)C(=O)C(=O)N2CCCC[C@H]2C(=O)O[C@H]([C@H](C)C[C@@H]2CC[C@@H](OCCO)[C@H](OC)C2)CC(=O)[C@H](C)/C=C(/C)[C@@H](O)[C@@H](OC)C(=O)[C@H](C)C[C@H](C)\C=C/C=C\C=C/1C [Everolimus] | -57.4 |
| CC(=O)N[C@H]1CSSC[C@@H](C(N)=O)NC(=O)[C@H](C(C)C)NC(=O)[C@H](C)NC(=O)[C@H](Cc2cnc[nH]2)NC1=O [Exherin] | -8 |
| CCOC(=O)[C@@H](N)CCC(=O)N[C@@H](CSCc1ccccc1)C(=O)N[C@@H](C(=O)OCC)c1ccccc1 [Ezatiostat] | -18.5 |
| O=C1[C@H](CC[C@H](O)c2ccc(F)cc2)[C@@H](c2ccc(O)cc2)N1c1ccc(F)cc1 [Ezetimibe] | -48.2 |
| CC[S+](=O)([O-])c1ccc2oc(-c3ccc4ccccc4c3)nc2c1 [Ezutromid] | -24.2 |
| CCC(=O)N[C@H]1CC[C@H](C(=O)N(C)c2ccc(-c3nc4ccccc4o3)cc2)C1 [FASN BI] | -31.4 |
| COC1=CC=CC=C1C2=CC=CC(=C2)C/3=C(O)/C4=CC(=C(Cl)C=C4NC3=O)C#N [FASN MRK] | -12.8 |

| Structure (SMILES) | efficacy [%] |
| --- | --- |
| O=C(O)CNC(=O)c1nc(Cl)c2ccccc2c1O [FG-2216] | -7.52 |
| CC1(C)O[C@@H]2C[C@H]3[C@@H]4C[C@H](F)\C5=C\C(=O)\C=C/[C@]5(C)[C@H]4[C@@H](O)C[C@]3(C)[C@@]2(O1)C(=O)CO [FLUNISOLIDE] | -18.4 |
| CCN1C(=O)\C(=C/C2=CN=C(NCCC3CCN(C)CC3)N=C12)C4=CC=C(C=C4Cl)C5=CN=CC(=N5)C [FRAX-1036] | -62.9 |
| N#Cc1ccc(C2CCCc3cncn32)cc1 (stereo unspecified) [Fadrozole] | -10.8 |
| CC(=O)OCC(CCn1cnc2cnc(N)nc21)COC(C)=O [Famciclovir] | -14.2 |
| NC(=O)c1nc(F)cnc1O [Favipiravir] | -17.6 |
| Cc1nc(-c2ccc(OCC(C)C)c(C#N)c2)sc1C(=O)O [Febuxostat] | 3.94 |
| CN1CC(=O)\N=C1\NC(=O)NC2=CC(=CC=C2)Cl [Fenobam] | 5.7 |
| CC(C)OC(=O)C(C)(C)Oc1ccc(C(=O)c2ccc(Cl)cc2)cc1 [Fenofibrate] | -34.6 |
| Oc1ccc(C2CNCCc3c2cc(O)c(O)c3Cl)cc1 (stereo unspecified) [Fenoldopam] | -23.6 |
| CC(C)(C)NC(=O)[C@H]1CC[C@H]2[C@@H]3CC[C@H]4NC(=O)\C=C/[C@]4(C)[C@H]3CC[C@]12C [Finasteride] | -16.1 |
| OC1=CC2=C(C=C1)C(=O)\C(=C(O2)\C3=CC(=C(O)C=C3)O)O [Fisetin] | -56.3 |
| O=C(NCC1CCCCN1)c1cc(OCC(F)(F)F)ccc1OCC(F)(F)F (stereo unspecified) [Flecainide acetate] | -24.2 |
| NC/1=N/C(=O)N/C=C1F [Flucytosine] | -10.7 |
| CC1(C)O[C@@H]2C[C@H]3[C@@H]4C[C@H](F)C/5=C/C(=O)/C=C\[C@]5(C)[C@@]4(F)[C@@H](O)C[C@]3(C)[C@@]2(O1)C(=O)CO [Fluocinolone acetonide] | -10.6 |
| CC(=O)OCC(=O)[C@@]12OC(C)(C)O[C@@H]1C[C@H]3[C@@H]4C[C@H](F)C/5=C/C(=O)/C=C\[C@]5(C)[C@@]4(F)[C@@H](O)C[C@]23C [Fluocinonide] | -12.9 |
| CCOC(=O)Nc1ccc(NCc2ccc(F)cc2)nc1N [Flupirtine maleate] | 8.9 |
| CC(C(=O)O)c1ccc(-c2ccccc2)c(F)c1 (stereo unspecified) [Flurbiprofen] | -9.87 |
| CC(C)C(=O)Nc1ccc([N+](=O)[O-])c(C(F)(F)F)c1 [Flutamide] | -14.3 |
| CCC(=O)O[C@@]1([C@H](C)C[C@H]2[C@@H]3C[C@H](F)\C4=C\C(=O)\C=C/[C@]4(C)[C@@]3(F)[C@@H](O)C[C@]12C)C(=O)SCF [Fluticasone propionate] | -11.6 |
| Cc1cn[nH]c1 [Fomepizole] | -18.8 |
| C[C@]12CCC(=O)C(O)=C1CC[C@@H]1[C@@H]2CC[C@]2(C)C(=O)CC[C@@H]12 [Formestane] | 24.5 |
| CCOP(=O)(OCC)C(C)NC(=O)N(CCCl)N=O (stereo unspecified) [Fotemustine] | 7.5 |
| CNC(=O)c1c(C)oc2cc(Oc3ncnc4cc(OC)c(OC)cc34)ccc12 [Fruquintinib] | -11.4 |

| Structure (SMILES) | efficacy [%] |
| --- | --- |
| C[C@]12CC[C@@H]3c4ccc(O)cc4C[C@@H](CCCCCCCCC[S+]([O-])CCCC(F)(F)C(F)(F)F)[C@H]3[C@@H]1CC[C@@H]2O (stereo partly specified) [Fulvestrant] | -14.2 |
| CN[C@@H](C)C(=O)N[C@H](C(=O)N1CCC[C@H]1C(=O)Nc1snnc1-c1ccccc1)C1CCCCC1 [GDC-0152] | -13.4 |
| C[C@]1(C(=O)N(CCCC(=O)O)Cc2cccc(Cl)c2)CCN1C(=O)c1csc2ccccc12 [GLPG-0974] | -21.2 |
| CC(C)C[C@H](CC(=O)O)C(=O)N[C@@H](Cc1c[nH]c2ccccc12)C(=O)N[C@@H](C)c1ccccc1 [GM-1489] | 10.9 |
| Nc1ncc(C(=O)NC2CN(C(=O)C3CC3)C2)c2ccc(-c3cccc(F)c3)nc12 [GNE-495] | -23.5 |
| CC(=O)N1CCN(c2ccc(NC(=O)Cc3cnc(-c4ccnc(F)c4)c(C)c3)nc2)CC1 [GNF-6231] | -22.2 |
| C[C@H](NC(=O)Cc1cc(F)cc(F)c1)C(=O)N[C@H](C(=O)OC(C)(C)C)c1ccccc1 [GSI-IX] | 26 |
| CCN(C(=O)c1ccccc1OC)c1cc2c(cc1N1CCNC[C@H]1C)n(C)c(=O)n2C [GSK9311] | -8.64 |
| CC[C@H](C)[N]1C=C(C)C2=C1C=C(C=C2C(=O)NC\C3=C(C)\C=C(\C)NC3=O)C4=CC=C(N=C4)N5CCNCC5 [GSK-126] | -125 |
| CN1C(=O)[C@@H](NC(=O)c2cc(Cc3ccccc3)on2)COc2ccccc21 [GSK-481] | -10.3 |
| CC(C)(C)[S+](=O)([O-])c1ccc2nccc(Nc3n[nH]c4ccc(F)cc34)c2c1 [GSK-583] | -39.1 |
| COc1c(C)cc(NC(=O)c2nn(Cc3ccc(F)cc3)c3c2CN(C(=O)c2ccc[nH]2)C[C@]3(C)C(N)=O)cc1C [GSK-864] | -35.1 |
| CC(C)[S+](=O)([O-])c1ccc2nccc(Nc3ccc4scnc4c3)c2c1 [GSK-872] | -37.8 |
| CC(C)(C)C(=O)N1\N=C/C[C@H]1C2=CC=CC=C2 [GSK-963] | -9.61 |
| CCCOc1ccn2c(C(C)=O)cc(-c3ccccc3[S+](C)(=O)[O-])c2c1 [GSK-2801] | -30.1 |
| O=C(O)Cc1cccc(OCCCN(Cc2cccc(C(F)(F)F)c2Cl)CC(c2ccccc2)c2ccccc2)c1 [GSK-3965] | -71.2 |
| COc1ccccc1C(=O)Nc1cc2c(cc1N1CCCCC1)n(C)c(=O)n2C [GSK-5959] | -9.01 |
| O=C(O)CCNc1cc(N2CCc3ccccc3CC2)nc(-c2cccnc2)n1 [GSK-J2] | -21.7 |
| Cc1cc(SCc2sc(-c3ccc(C(F)(F)F)c(F)c3)nc2C)ccc1OCC(=O)O [GW-0742] | -21 |
| CN(CCOc1ccc(C[C@H](Nc2ccccc2C(=O)c2ccccc2)C(=O)O)cc1)c1ccccn1 [GW-1929] | -7.57 |
| CC(C)c1onc(-c2c(Cl)cccc2Cl)c1COc1ccc(/C=C/c2cccc(C(=O)O)c2)c(Cl)c1 [GW-4064X] | -29.7 |
| O=C1Nc2ccc(I)cc2/C1=C/c1cc(Br)c(O)c(Br)c1 [GW-5074] | -38 |
| CCC(=O)NC[C@H](Cc1ccc(OCCc2nc(-c3ccccc3)oc2C)cc1)N/C(C)=C\C(=O)c1ccc(C(F)(F)F)cc1 [GW-6471] | -30.2 |

Reference: the supplement of paper PMC10290057
